Test results reported in US4711879A, “Acylated sugar derivatives, processes for their manufacture, and their use” (Ciba-Geigy Corporation, priority 1984, dated 1987).

Key:
viruses = assay: prophylaxis and treatment of virus infections in animals; assay type: in vivo, mice or guinea pigs; conditions: tests on animals
From the text: In these animal tests, animals, such as mice or guinea pigs, are infected with the most varied types of viruses at a dose that is lethal to all or the great majority of the untreated (control) animals, for example LD80-90, and the course of the infection is observed in the untreated control animals in comparison with animals treated with one of the above-mentioned compounds or a salt thereof before, simultaneously with or after infection.
These compounds of the formula I are effective in as low a dosage range as from 0.0001 mg/kg to 0.1 mg/kg in the above-mentioned test in mice.

[1] = test for pyrogenity in rabbits (European Pharmacopoeia); assay type: in vivo; conditions: 5 mg/kg i.v.
Method: The test for pyrogenity can be carried out in rabbits in accordance with the instructions given in the European Pharmacopoeia, Volume 2, pages 56 to 59 (1971). According to this test, for example N-propionyl- desmethylmuramyl-L-alanyl-D-isoglutaminyl-L-alanine-3-{2-[2-(2,6-dichlorophenylamino)-phenyl]-acetylamino}-2-hydroxypropylamide is not pyrogenic at a dose of 5 mg/kg i.v.

pyrogenity [1] | Compound | suitability for prophylaxis and treatment of virus infections (viruses)
– | (1α,β),4,6-tri-O-acetyl-N-propionyldesmethylmuramyl-L-alanyl-D- isoglutaminyl-L-alanine-3-[d-2-(6-methoxy-2-naphthyl]-propionylamino]-2-acetoxypropylamide [Example 21] | outstandingly suitable for the prophylaxis and treatment of virus infections
not pyrogenic | CCC(=O)N(C1O[C@H](CO)[C@@H](O)[C@H](OCC(=O)O)[C@H]1N)[C@@H](C)C(=O)N[C@H](CCC(=O)N[C@@H](C)C(=O)NCC(O)CNC(=O)Cc1ccccc1Nc1c(Cl)cccc1Cl)C(N)=O (stereo partly drawn) [Example 6, N-propionyldesmethylmuramyl-L-alanyl-D-isoglutaminyl-L-alanine-3-{2-[2-(2,6-dichlorophenylamino)-phenyl]acetylamino}-2-hydroxypropylamide] | –
